In US11021444B2, “Antiviral compounds” (priority 2013, dated 2021):
Read-outs that look alike come from different tables or passages of the source.

Columns and labels:
[1] = tested on: Respiratory Syncytial Virus (RSV) long strain; experiment: microbe, parasite or virus in culture; assay type: cell-based; conditions: human respiratory syncytial virus, Tables A and B list compounds by EC50 band
Method in brief: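 HEp-2 cells infected with 100 TCID50 virus per well, compounds in duplicate, 9-point 1/3 dilutions from 100 μM or 1 μM, 1% DMSO. After 5 days at 37 °C, cell viability (CPE protection) read by CCK-8 absorbance at 450 nm, 630 nm background.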

[2] = tested on: RSV replicon; experiment: microbe, parasite or virus in culture; assay type: cell-based; conditions: human respiratory syncytial virus, read-out: EC50, the concentration of the drug required for reducing RSV replicon RNA by 50%
[3] = Cytotoxicity Determination (CCK-8, without addition of virus); assay type: cell-based; conditions: human, 50% cytotoxicity concentration (CC50)
Method in brief: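 HEp-2 cells were seeded at 1,500 cells/well one day before compound addition. Compounds were tested without virus in duplicate over 7 points from 100 μM in 1/2 steps, with 1% final DMSO, 5 days at 37 °C, 5% CO2. Viability was read by CCK-8 after 3-4 hours.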

[4] = biological target: recombinant RSV complex (Human respiratory syncytial virus A, UniProt P28887); experiment: RSV Polymerase Inhibition Assay; assay type: biochemical
recombinant RSV complex, sequence (P28887 whole entry): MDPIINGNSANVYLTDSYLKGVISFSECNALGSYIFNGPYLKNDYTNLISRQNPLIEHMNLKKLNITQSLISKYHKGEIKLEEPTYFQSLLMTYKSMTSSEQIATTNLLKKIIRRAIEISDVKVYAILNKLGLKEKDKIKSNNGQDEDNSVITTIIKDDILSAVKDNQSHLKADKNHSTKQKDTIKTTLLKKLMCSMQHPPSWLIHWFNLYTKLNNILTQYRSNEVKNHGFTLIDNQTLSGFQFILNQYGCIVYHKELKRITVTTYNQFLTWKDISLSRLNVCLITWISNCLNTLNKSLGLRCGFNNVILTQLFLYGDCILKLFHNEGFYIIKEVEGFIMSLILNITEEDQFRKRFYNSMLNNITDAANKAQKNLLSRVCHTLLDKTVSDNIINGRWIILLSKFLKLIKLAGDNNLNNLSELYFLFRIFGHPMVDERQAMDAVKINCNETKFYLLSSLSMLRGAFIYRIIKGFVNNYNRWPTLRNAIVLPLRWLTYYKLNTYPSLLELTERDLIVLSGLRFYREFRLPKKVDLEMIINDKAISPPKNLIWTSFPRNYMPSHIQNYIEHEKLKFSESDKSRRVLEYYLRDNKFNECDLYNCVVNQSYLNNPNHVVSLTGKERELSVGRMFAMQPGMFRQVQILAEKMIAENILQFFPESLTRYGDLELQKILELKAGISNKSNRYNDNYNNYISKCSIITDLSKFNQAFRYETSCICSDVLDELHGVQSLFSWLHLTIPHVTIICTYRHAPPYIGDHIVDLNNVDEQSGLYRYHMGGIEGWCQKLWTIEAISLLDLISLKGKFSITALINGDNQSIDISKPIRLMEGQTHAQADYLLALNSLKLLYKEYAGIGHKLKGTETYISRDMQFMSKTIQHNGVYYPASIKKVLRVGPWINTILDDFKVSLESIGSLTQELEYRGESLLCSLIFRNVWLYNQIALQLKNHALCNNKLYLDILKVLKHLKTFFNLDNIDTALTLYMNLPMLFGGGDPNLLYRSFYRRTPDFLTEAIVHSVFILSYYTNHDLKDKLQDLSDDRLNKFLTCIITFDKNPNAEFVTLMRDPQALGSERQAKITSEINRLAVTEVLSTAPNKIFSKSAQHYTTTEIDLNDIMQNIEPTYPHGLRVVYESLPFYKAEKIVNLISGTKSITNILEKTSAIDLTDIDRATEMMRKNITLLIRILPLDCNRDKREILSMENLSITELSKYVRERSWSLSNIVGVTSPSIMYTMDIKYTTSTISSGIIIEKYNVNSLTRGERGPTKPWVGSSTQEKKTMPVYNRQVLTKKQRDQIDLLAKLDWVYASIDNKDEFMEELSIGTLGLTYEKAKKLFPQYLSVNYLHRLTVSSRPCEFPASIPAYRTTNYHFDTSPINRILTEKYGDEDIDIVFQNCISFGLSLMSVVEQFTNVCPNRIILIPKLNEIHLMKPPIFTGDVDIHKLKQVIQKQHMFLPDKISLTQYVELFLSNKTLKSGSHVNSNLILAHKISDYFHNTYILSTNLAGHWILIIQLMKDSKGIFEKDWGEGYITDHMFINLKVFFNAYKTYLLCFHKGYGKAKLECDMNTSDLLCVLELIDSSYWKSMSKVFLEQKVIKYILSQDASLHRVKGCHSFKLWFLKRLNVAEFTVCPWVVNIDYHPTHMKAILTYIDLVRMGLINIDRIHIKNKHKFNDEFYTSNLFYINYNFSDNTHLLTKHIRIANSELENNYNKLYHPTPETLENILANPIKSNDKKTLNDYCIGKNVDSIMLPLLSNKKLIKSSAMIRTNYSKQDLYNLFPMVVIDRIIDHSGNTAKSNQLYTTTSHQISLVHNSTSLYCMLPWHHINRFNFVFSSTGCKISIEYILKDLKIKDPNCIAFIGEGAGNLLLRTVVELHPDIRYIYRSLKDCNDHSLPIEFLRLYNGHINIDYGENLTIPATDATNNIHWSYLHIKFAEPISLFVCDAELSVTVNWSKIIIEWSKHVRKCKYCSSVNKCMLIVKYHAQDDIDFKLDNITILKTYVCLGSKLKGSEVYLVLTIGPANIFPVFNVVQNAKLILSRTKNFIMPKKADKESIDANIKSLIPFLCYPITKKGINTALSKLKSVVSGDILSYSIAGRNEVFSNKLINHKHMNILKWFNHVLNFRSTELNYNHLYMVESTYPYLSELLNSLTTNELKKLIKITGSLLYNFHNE
recombinant RSV complex, sequence (P03421 whole entry, further chain): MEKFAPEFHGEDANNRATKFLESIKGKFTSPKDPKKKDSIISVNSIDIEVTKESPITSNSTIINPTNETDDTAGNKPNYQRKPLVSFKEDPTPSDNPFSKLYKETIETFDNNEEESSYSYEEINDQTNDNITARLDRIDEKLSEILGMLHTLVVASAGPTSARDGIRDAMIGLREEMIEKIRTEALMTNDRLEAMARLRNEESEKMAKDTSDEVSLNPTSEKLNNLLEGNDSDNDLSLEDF
Method in brief: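 10 nM recombinant RSV polymerase complex in Tris-HCl pH 7.5, 6 mM MgCl2 with RNA oligonucleotide template and radionucleotides, incubated 2 h at 30 °C with increasing inhibitor concentrations. Reaction stopped with EDTA; radiolabeled RNA product counted by scintillation.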

[5] = HEp-2, 120 h, read-out: 50% effective concentration (EC50), HEp-2 cells infected with RSV long strain, 5 days, CCK-8 readout
[6] = 120 h, read-out: 50% effective concentration (EC50), HEp-2 cells infected with RSV long strain, 5 days, CCK-8 readout

SMILES	EC50 [1, 5]	EC50 [2]	CC50 at 5 days [3]	IC50 [4]	EC50 [1, 6]
COc1cc(C(=O)NCC(C)(O)c2ccc(OC)c(-c3ccc(F)c(Br)c3)n2)ccc1OCC(N)=O (stereo not shown) [Compound 403]	< 1000 nM	< 1000 nM	> 100000 nM	< 1000 nM	–
CNC(C)c1cc(-c2ccc(F)c(Cl)c2)nc(C(O)(CNC(=O)c2ccc(OC3CC3)c(OC)c2)C(F)(F)F)c1 (stereo not shown) [Compound 466]	< 1000 nM	< 1000 nM	10000 to 100000 nM	< 1000 nM	–
COc1cc(C(=O)NCC(O)(c2cc(CN)cc(-c3ccc(F)cc3)n2)C(F)(F)F)ccc1OC1CC1 (stereo not shown) [Compound 361]	< 1000 nM	< 1000 nM	10000 to 100000 nM	< 1000 nM	–
COc1cc(C(=O)NCC(O)(c2ccc(OC)c(-c3ccc(F)c(Cl)c3)n2)C2CC2)ccc1Cn1cncn1 (stereo not shown) [Compound 434]	< 1000 nM	< 1000 nM	10000 to 100000 nM	< 1000 nM	–
COc1cc(C(=O)NCC(O)(c2cc3c(c(-c4ccc(F)c(Cl)c4)n2)OCC3)C2CC2)ccc1OCCO (stereo not shown) [Compound 310]	–	< 1000 nM	10000 to 100000 nM	< 1000 nM	< 1000 nM
COc1cc(C(=O)NCC(O)(c2cc(C(C)(C)NC(C)C)cc(-c3ccc(F)c(Cl)c3)n2)C(F)(F)F)ccc1OC1CC1 (stereo not shown) [Compound 392]	< 1000 nM	< 1000 nM	10000 to 100000 nM	< 1000 nM	–
COc1cc(C(=O)NCC(O)(c2ccc(OC)c(-c3ccc(F)c(Cl)c3)n2)C(F)(F)F)ccc1OCC(C)=O (stereo not shown) [Compound 362]	< 1000 nM	< 1000 nM	10000 to 100000 nM	< 1000 nM	–
COc1cc(C(=O)NCC(O)(c2cc3c(c(-c4ccc(F)c(Cl)c4)n2)OCC3(C)N)C(F)(F)F)ccc1OC1CC1 (stereo not shown) [Compound 483]	< 1000 nM	< 1000 nM	10000 to 100000 nM	< 1000 nM	–
COc1cc(C(=O)NCC(C)(O)c2ccc(OC)c(-c3ccc(F)c(Cl)c3)n2)ccc1OC(C)(C)C (stereo not shown) [Compound 371]	< 1000 nM	< 1000 nM	10000 to 100000 nM	< 1000 nM	–
COc1cc(C(=O)NCC(O)(c2cc(C(C)(C)N)cc(-c3ccc(F)cc3)n2)C(F)(F)F)ccc1OC1CC(O)C1 (stereo not shown) [Compound 596]	< 1000 nM	< 1000 nM	10000 to 100000 nM	< 1000 nM	–
COc1cc(C(=O)NCC(O)(c2cc3c(c(-c4ccc(F)c(Cl)c4)n2)NCC3(C)C)C(F)(F)F)ccc1OC1CC1 (stereo not shown) [Compound 335]	< 1000 nM	< 1000 nM	> 100000 nM	< 1000 nM	–
COc1cc(C(=O)NCC(C)(F)c2ccc(OC)c(-c3ccc(F)c(Cl)c3)n2)ccc1OCCO (stereo not shown) [Compound 365]	< 1000 nM	< 1000 nM	10000 to 100000 nM	< 1000 nM	–
COc1cc(C(=O)NCC(O)(Cn2nccn2)c2ccc(OC)c(-c3ccc(F)c(Cl)c3)n2)ccc1OCCO (stereo not shown) [Compound 193]	< 1000 nM	< 1000 nM	10000 to 100000 nM	< 1000 nM	–
COc1cc(C(=O)NCC(O)(Cn2cccn2)c2cc3c(c(-c4ccc(F)c(Cl)c4)n2)OCC3(C)C)ccc1OC1CCNC1=O (stereo not shown) [Compound 218]	< 1000 nM	< 1000 nM	10000 to 100000 nM	< 1000 nM	–
COc1cc(C(=O)NCC(O)(c2cc(C(C)(C)NCCF)cc(-c3ccc(F)c(Cl)c3)n2)C(F)(F)F)ccc1OC1CC1 (stereo not shown) [Compound 356]	< 1000 nM	< 1000 nM	10000 to 100000 nM	< 1000 nM	–
C=CC(O)(CNC(=O)c1ccc(OCCF)c(OC)c1)c1ccc(OC)c(-c2ccc(F)c(Cl)c2)n1 (stereo not shown) [Compound 126]	< 1000 nM	< 1000 nM	10000 to 100000 nM	< 1000 nM	–

SMILES	EC50 [1, 5]	EC50 [2]	CC50 at 5 days [3]	IC50 [4]	EC50 [1, 6]
CCOc1ccc(C(=O)NCC(O)(c2cc(C(C)(C)N)cc(-c3ccc(F)c(Cl)c3)n2)C(F)(F)F)cc1OC (stereo not shown) [Compound 315]	< 1000 nM	< 1000 nM	10000 to 100000 nM	< 1000 nM	–
COc1cc(C(=O)NCC(O)(c2cc(C(C)(C)NC(N)=O)cc(-c3ccc(F)c(Cl)c3)n2)C(F)(F)F)ccc1OC1CC1 (stereo not shown) [Compound 516]	< 1000 nM	< 1000 nM	10000 to 100000 nM	< 1000 nM	–
COc1cc(C(=O)NCC(O)(c2cc3c(c(-c4ccc(F)c(Cl)c4)n2)OCC3(C)C)C(F)(F)F)cc2cccnc12 (stereo not shown) [Compound 208]	< 1000 nM	< 1000 nM	10000 to 100000 nM	< 1000 nM	–
COc1cc(C(=O)NCC(O)(c2cc(C(N)CO)cc(-c3ccc(F)cc3)n2)C(F)(F)F)ccc1OC1CC1 (stereo not shown) [Compound 529]	< 1000 nM	< 1000 nM	10000 to 100000 nM	< 1000 nM	–
COc1cc(C(=O)NCC(O)(c2cc(C(C)(C)N)cc(-c3ccc(F)cc3)n2)C(F)(F)F)ccc1OC1CC1 (stereo not shown) [Compound 318]	< 1000 nM	< 1000 nM	10000 to 100000 nM	< 1000 nM	–
COc1cc(C(=O)NCC(O)(c2cc3c(c(-c4ccc(F)c(Cl)c4)n2)OCC3(C)C)C(F)(F)F)ccc1OC1CC1 (stereo not shown) [Compound 209]	< 1000 nM	< 1000 nM	> 100000 nM	< 1000 nM	–
COc1cc(C(=O)NCC(O)(c2cc(C(C)(C)N)c(OC)c(-c3ccc(F)cc3)n2)C(F)(F)F)ccc1OC1CC1 (stereo not shown) [Compound 594]	< 1000 nM	< 1000 nM	10000 to 100000 nM	< 1000 nM	–
COc1cc(C(=O)NCC(O)(CO)c2ccc(OC)c(-c3ccc(F)c(Cl)c3)n2)ccc1OCCO (stereo not shown) [Compound 176]	< 1000 nM	< 1000 nM	> 100000 nM	< 1000 nM	–
COc1cc(C(=O)NCC(O)(c2ccc(OC)c(-c3ccc(F)c(Cl)c3)n2)C(F)(F)F)ccc1OCC(N)=O (stereo not shown) [Compound 240]	–	< 1000 nM	10000 to 100000 nM	< 1000 nM	< 1000 nM
CCOc1ccc(C(=O)NCC(C)(O)c2ccc(OC)c(-c3c[nH]c4c(F)cccc34)n2)cc1OC (racemic) [Compound 116]	< 1000 nM	< 1000 nM	10000 to 100000 nM	< 1000 nM	–
COc1cc(C(=O)NCC(O)(c2cc3c(c(-c4ccc(F)c(Cl)c4)n2)OCC3(C)N)C(F)(F)F)ccc1OCCO (stereo not shown) [Compound 638]	< 1000 nM	< 1000 nM	10000 to 100000 nM	< 1000 nM	–
COc1cc(C(=O)NCC(O)(c2cc3c(c(-c4ccc(F)cc4)n2)OCC3(C)N)C(F)(F)F)ccc1OCCO (stereo not shown) [Compound 539]	< 1000 nM	< 1000 nM	10000 to 100000 nM	< 1000 nM	–
COc1cc(C(=O)NCC(O)(c2cc(C3(N)COC3)cc(-c3ccc(F)cc3)n2)C(F)(F)F)ccc1OC1CC1 (stereo not shown) [Compound 595]	< 1000 nM	< 1000 nM	10000 to 100000 nM	< 1000 nM	–
CNC(C)(C)c1cc(-c2ccc(F)c(Cl)c2)nc(C(O)(CNC(=O)c2ccc(OCC(N)=O)c(OC)c2)C(F)(F)F)c1 (stereo not shown) [Compound 487]	< 1000 nM	< 1000 nM	10000 to 100000 nM	< 1000 nM	–
COc1cc(C(=O)NCC(O)(c2cc(C(C)(N)CF)cc(-c3ccc(F)cc3)n2)C(F)(F)F)ccc1OCCO (single isomer, unassigned) [Compound 664]	< 1000 nM	< 1000 nM	10000 to 100000 nM	< 1000 nM	–
